Values quoted from earlier work as cited in patent publication US8828412B2, “Stable polyphenol containing ophthalmic emulsion for treating dry eyes” (Abbott Medical Optics Inc., priority 2009, dated 2014).

Details: reported; species not stated

- oral bioavailability: about 60%
Structure (SMILES): COc1cc(/C=C/C(=O)CC(=O)/C=C/c2ccc(O)c(OC)c2)ccc1O [curcumin]
